Measured values from patent US20250188091A1, “PYRIDONE COMPOUND HAVING INTEGRASE INHIBITORY ACTIVITY AND PHARMACEUTICAL USE THEREOF” (priority 2021, published 2025).
pEC50: −log10 of the molar value. Like-named read-outs stand apart in the source and are kept apart here.

Columns and labels:
[1] = tested on: HIV-1 integrase Q148R/N155H pseudovirus; assay: Pseudovirus-based assay of anti-HIV-1 activity, Q148R/N155H strain; format: cell-based; conditions: HEK-293T, 72 h
Method: (§1) The inhibitory activity against pseudoviruses containing common clinical mutation sites of HIV-1 integrase (G140S/Q148R, Q148R/N155H, E138K, Q148H, R263K and Y143R/Q148H) was determined.
(§2) Preparation of pseudovirus: Using the lentiviral plasmid pNL4-3-Luc-RE (HedgehogBio) as the backbone, an integrase point mutation plasmid was constructed. HEK293T cells (ATCC) were seeded in a 6-well plate at 5×10^5 cells per well. After 24 hours, when the cell density reached 60% to 80%, transfection was performed. pNL4-3-Luc-R-E- or pNL4-3-Luc-R-E--IN-mutant plasmid and lentivirus packaging plasmid pMD2.G (Beijing Zoman Bio) were added to the transfection reagent in a certain proportion. Cell transfection was performed according to the instructions of transfection reagent PEI25K (Maokang Biotechnology). After 48 hours, the supernatant was collected, centrifuged at 3000 rpm for 5 minutes, filtered with a 0.45 μm microporous membrane, aliquoted, and stored at −80° C. for later use. In HEK293T cells, the pseudovirus titer was determined based on luciferase activity.
(§3) Determination of antiviral activity of compounds: In a 96-well V-bottom plate, the compound to be tested was diluted with DMSO semi-logarithmically, and a compound solution 4 times the final concentration was prepared for later use. According to the results of different virus titrations, the virus was diluted with complete culture medium for later use. HEK293T cells were digested with trypsin to obtain a cell suspension of 2×10^5/mL. 50 µl of compound diluent, 50 µl of virus diluent and 100 µl of cell suspension were added successively to a 96-well flat-bottomed plate. The final concentration of the compound was 1000 nM to 0.1 nM. The 96-well plate was incubated in a 37° C., 5% CO2 incubator. After 72 hours, 100 µL of culture supernatant was pipetted out carefully from each well of the 96-well plate, 25 µL of Steady-Glo detection reagent (Promega, Cat #E2550) was added to each well in the dark, and then assayed on a machine (Tecan, Type #Spark).

[2] = tested on: HIV-1 integrase Y143R/Q148H pseudovirus; assay: Pseudovirus-based assay of anti-HIV-1 activity, Y143R/Q148H strain; format: cell-based; conditions: HEK-293T, 72 h
Method: as §1, §2, §3

[3] = tested on: HIV-1 integrase Q148H pseudovirus; assay: Pseudovirus-based assay of anti-HIV-1 activity, Q148H strain; format: cell-based; conditions: HEK-293T, 72 h
Method: as §1, §2, §3

[4] = tested on: HIV-1 integrase R263K pseudovirus; assay: Pseudovirus-based assay of anti-HIV-1 activity, R263K strain; format: cell-based; conditions: HEK-293T, 72 h
Method: as §1, §2, §3

[5] = tested on: HIV-1 integrase E138K pseudovirus; assay: Pseudovirus-based assay of anti-HIV-1 activity, E138K strain; format: cell-based; conditions: HEK-293T, 72 h
Method: as §1, §2, §3

[6] = tested on: human immunodeficiency virus type 1 IIIB strain (HIV-1IIIB); assay: Cell protection assay against HIV infection (MT-4 cells, XTT); format: cell-based; conditions: for CC50/EC50: MT-4 cells, HIV-1IIIB
Method: The protective effect of the test compound on MT-4 cells infected by human immunodeficiency virus type 1 IIIB strain (HIV-1IIIB) at different concentrations was evaluated.
The test compound was dissolved in DMSO at a concentration of 10 mM and stored at −20° C.
2) Test of the anti-HIV-1 IIIB infection activity of the compound: A starting concentration of 10 nM was used, and five serial five-fold dilutions were carried out on the compound. Each compound was present in the test medium at a concentration 2 folds of the final desired test concentration. 100 microliters (100 μL) of the solution of each concentration was added to triplicate wells for efficacy evaluation, and each concentration was added one well for colorimetric evaluation. AZT was purchased from Sigma Aldrich (St. Louis, MO, USA), and evaluated as a control compound in the antiviral assay.
(§4) Cell culture: MT-4 cells were passaged in a T-75 flask before use in the antiviral assay. On the day before the assay, cells were passaged in aliquots at a 1:2 ratio to ensure that they were in the exponential growth phase at the time of infection. Total cells and viable cells were quantified using a hemocytometer and trypan blue dye. The proportion of viable cells used for the assay was greater than 95%. The cells were resuspended in tissue culture medium at 5×10^4 cells per milliliter, and the resulting suspension was added to a drug-containing microtiter plate in a volume of 50 μL.
Virus preparation: The virus used for this assay was lymphotropic virus strain HIV-1IIIB. The viruses were amplified in CEM-SS cells for the preparation of virus stock solution. The pre-titered virus aliquot tube was taken from the refrigerator (−80° C.), and slowly thawed to room temperature in a biosafety cabinet. The viruses were diluted in the tissue culture medium. 50 μl of the diluted virus would produce 85% to 95% cell killing 6 days after infection. 50 μL of the diluted virus was added immediately to the microtiter plate containing cells and drugs.
(§5) Evaluation of the efficacy and toxicity of the compound with XTT: After culturing for six days in a 37° C., 5% CO2 incubator, tetrazolium dye XTT (2,3-bis(2-methoxy-4-nitro-5-sulfophenyl)-5-[(phenylamino)carbonyl]-2H-tetrazolium hydroxide) was added to the cell culture plate to conduct the test. The XTT solution was a 1 mg/ml RPMI1640 stock solution prepared on the same day. Phenazine methyl sulfate (PMS) solution at a concentration of 0.15 mg/ml was prepared in PBS, and stored in the dark at −20° C. XTT/PMS stock solution was prepared before use by adding 40 μl of PMS per milliliter of XTT solution. […] of XTT/PMS was added to each well of the plate, and the plate was re-incubated for 4 hours at 37° C. The plate was sealed with adhesive plate sealant, and gently shaked or inverted several times to mix the soluble formazan product. The absorbance was read at 450/650 nm.

[7] = tested on: HIV-1 integrase G140S/Q148R pseudovirus; assay: Pseudovirus-based assay of anti-HIV-1 activity, G140S/Q148R strain; format: cell-based; conditions: HEK-293T, 72 h
Method: as §1, §2, §3

[8] = tested on: WT (wild type) pseudovirus; assay: Pseudovirus-based assay of anti-HIV-1 activity, WT strain; format: cell-based; conditions: HEK-293T, 72 h
Method: as §1, §2, §3

[9] = Test of cytotoxicity of the compound (MT-4 cells, XTT); format: cell-based; conditions: human
Method: (§6) 1) Test of cytotoxicity of the compound: The test compound was evaluated using a starting concentration of 100 nM and five serial half-log dilutions. Each compound was present in the test medium at a concentration 2 folds of the final desired test concentration. The compound was diluted to 1 mM in DMSO. The compound was then diluted to 200 nM in a drug dilution tube containing 998 μL of test medium (adding 2 μL of 1 mM stock). […] of the 200 nM solution was transferred into 680 μL of the test medium (half-log dilution), and a total of five serial dilutions were carried out. 100 microliters (100 μL) of the solution of each concentration was added to duplicate wells for cytotoxicity evaluation, and each concentration was added to one well for colorimetric evaluation.
as §4, §5

[10] = tested on: HIV-1 subtype D UG/92/001; assay: Inhibitory activity against clinical HIV-1 strain UG/92/001 in PBMC; format: cell-based; conditions: for pEC50: read-out: hPBMC/HIV-1 EC50; for EC90: read-out: hPBMC/HIV-1 EC90
Method: (§7) Preparation of virus: Clinical HIV-1 virus strains (Table 3) were obtained from the US NIH AIDS Research and Reference Reagent Library. PBMC were extracted from three fresh blood samples that were HIV and HBV seronegative, mixed and cultured, and PHA-P (phytohemagglutinin) was added to stimulate activation. The cells and virus were incubated at 37° C./5% CO2, and the cell culture supernatant after infection was collected and stored frozen at −80° C. Each viral titer was titrated in pooled PBMCs from three donors.
(§8) Assay of antiviral activity of compounds: Frozen PBMCs were resuspended in fresh culture medium (1×10^6 cells/mL), and added to a round-bottom 96-well plate ([…]). 100 μl of culture medium containing 2 times the final concentration of the compound was added to each well, and then 50 μL of virus solution was added (the final infection dose was MOI=0.002). After 7 days of culture, the reverse transcriptase activity in the supernatant was determined to evaluate HIV-1 replication. At the same time, a 96-well culture plate with only compounds and cells was prepared for the assay of compound cytotoxicity.

[11] = tested on: HIV-1 subtype A RW/92/009; assay: Inhibitory activity against clinical HIV-1 strain RW/92/009 in PBMC; format: cell-based; conditions: for pEC50: read-out: hPBMC/HIV-1 EC50; for EC90: read-out: hPBMC/HIV-1 EC90
Method: as §7, §8

[12] = tested on: HIV-1 subtype C MW/93/959; assay: Inhibitory activity against clinical HIV-1 strain MW/93/959 in PBMC; format: cell-based; conditions: for pEC50: read-out: hPBMC/HIV-1 EC50; for EC90: read-out: hPBMC/HIV-1 EC90
Method: as §7, §8

MT-4 cells = assay: Test of cytotoxicity of the compound (MT-4 cells, XTT); format: cell-based; conditions: 6 days
Method: as §6, §4, §5

[13] = tested on: common clinical integrase mutant strains (G140S/Q148R, Q148R/N155H, E138K, Q148H, R263K and Y143R/Q148H); assay: Pseudovirus assay, common clinical integrase mutant strains (overall comparison); format: cell-based, HIV-1; conditions: R263K and Y143R/Q148H pseudoviruses
Method: as §1, §2
Determination of antiviral activity of compounds: In a 96-well V-bottom plate, the compound to be tested was diluted with DMSO semi-logarithmically, and a compound solution 4 times the final concentration was prepared for later use. […]

[14] = tested on: HIV-1 clinical isolates (RW/92/009, MW/93/959, UG/92/001); assay: Clinical HIV-1 isolates in human PBMC (overall comparison); format: cell-based; conditions: RW/92/009, MW/93/959, UG/92/001 in human PBMC
Method: as §7, §8

[15] = Human immunodeficiency virus 1, IIIB, MT4, 144 h
[16] = UG/92/001, human PBMC, 7 days, reverse transcriptase activity in supernatant
[17] = RW/92/009, human PBMC, 7 days, reverse transcriptase activity in supernatant
[18] = MW/93/959, human PBMC, 7 days, reverse transcriptase activity in supernatant
[19] = Human immunodeficiency virus 1, 168 h, UG/92/001, human PBMC, 7 days, reverse transcriptase activity in supernatant
[20] = Human immunodeficiency virus 1, 168 h, RW/92/009, human PBMC, 7 days, reverse transcriptase activity in supernatant
[21] = Human immunodeficiency virus 1, 168 h, MW/93/959, human PBMC, 7 days, reverse transcriptase activity in supernatant
[22] = Human immunodeficiency virus 1, PBMC, 168 h

Compound | pEC50 [1] | EC90 [1] [nM] | pEC50 [2] | EC90 [2] [nM] | pEC50 [3] | EC90 [3] [nM] | pEC50 [4] | EC90 [4] [nM] | pEC50 [5] | EC90 [5] [nM] | pEC50 [6, 15] | CC50/EC50 [6] | pEC50 [7] | EC90 [7] [nM] | pEC50 [8] | EC90 [8] [nM] | CC50 at 6 days [9] [nM] | other results
O=C(NCc1ccc(F)cc1F)c1cn2c(c(O)c1=O)C(=O)N1[C@@H](C3CC3)CO[C@@H]1C2 [Compound 1] | 6.21 | > 1000 | 7.67 | 193 | 7.80 | 105 | 8.19 | 58.3 | 8.29 | 27.1 | 8.51 | >32.1 | 6.61 | > 1000 | 8.48 | 29.1 | > 100 | 
Cc1cn([C@H]2C[C@H](N=[N+]=[N-])[C@@H](CO)O2)c(=O)[nH]c1=O [AZT] |  |  |  |  |  |  |  |  |  |  |  | >250 |  |  |  |  |  | pEC50 [10, 16]: 8.40; EC90 [10, 16]: 62 nM; pEC50 [11, 17]: 8.45; EC90 [11, 17]: 75.5 nM; pEC50 [12, 18]: 9.51; EC90 [12, 18]: 38.6 nM; pEC50 ([6]; MT-4 cells infected by HIV-1IIIB, 6 days, XTT, read-out: EC50): 8.70; CC50 (MT-4 cells): > 500 nM
C[C@H]1CO[C@@H]2Cn3cc(C(=O)NCc4ccc(F)cc4F)c(=O)c(O)c3C(=O)N12 [Cabotegravir, cabotegravir] | 7.01 | > 1000 | 8.38 | 24.8 | 8.44 | 15.4 | 8.31 | 58.8 | 8.43 | 24.4 |  | >41.7 | 7.20 | 301 | 8.52 | 21.8 | > 100 | pEC50 [10, 19]: 9.34; EC90 [10, 19]: 2.94 nM; pEC50 [11, 20]: 10.05; EC90 [11, 20]: 0.59 nM; pEC50 [12, 21]: 10.22; EC90 [12, 21]: 0.67 nM; pEC50 ([6]; Human immunodeficiency virus 1, MT4, 144 h, MT-4 cells infected by HIV-1IIIB, 6 days, XTT, read-out: EC50): 8.62
Cc1nnc(C(=O)NC(C)(C)c2nc(C(=O)NCc3ccc(F)cc3)c(O)c(=O)n2C)o1 [Raltegravir, raltegravir] | < 6.00 | > 1000 | < 6.00 | > 1000 | 6.67 | > 1000 | 8.15 | 68 | 8.09 | 46.2 |  |  | < 6.00 | > 1000 | 8.26 | 60.7 |  | 
O=C(NCc1ccc(F)cc1F)c1cn2c(c(O)c1=O)C(=O)N1[C@@H](CF)CO[C@@H]1C2 [Compound 2] | 7.08 | > 1000 | 8.51 | 14.1 | 8.66 | 12.5 | 8.54 | 25.1 | 8.64 | 14.1 | 9.05 | >112 | 7.37 | 194 | 8.74 | 12.9 | > 100 | pEC50 [10, 22]: 9.55; EC90 [10, 22]: 1.28 nM; pEC50 [11, 22]: 10.70; EC90 [11, 22]: 0.4 nM; pEC50 [12, 22]: 11.15; EC90 [12, 22]: 0.37 nM; activity compared with cabotegravir [13]: better than that of cabotegravir with significant differences; activity compared with cabotegravir [14]: more active than cabotegravir
